Test results published in PMC4411097, “Pachymic Acid Inhibits Growth and Induces Apoptosis of Pancreatic Cancer In Vitro and In Vivo by Targeting ER Stress” (PLoS ONE, 2015).

System: MIA PaCa-2 cells
Assay: DNA microarray analysis (Affymetrix Human PrimeView);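 as to Mean (MiaPaca-2 * PA): Log2-transformed RMA normalized probe set signal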
Type: cell-based
[1] = gene HNRNPM, probeset 11761514_at
[2] = gene IER5, probeset 11716629_at
[3] = gene IRAK2, probeset 11733240_at
[4] = gene LIF, probeset 11758619_s_at
[5] = gene LTB, probeset 11739657_a_at
[6] = gene MALAT1, probeset 11745723_a_at
[7] = gene MARS2, probeset 11729710_a_at
[8] = gene MARS2, probeset 11750890_a_at
[9] = gene MCL1, probeset 11715484_a_at
[10] = gene NAV3, probeset 11723147_a_at
[11] = gene NFKBIA, probeset 11745878_x_at
[12] = gene NFKBIA, probeset 11757894_x_at
[13] = gene PHLDA2, probeset 11744005_at
[14] = gene PLEKHG6, probeset 11733595_x_at
[15] = gene RPS4X, probeset 11761933_at
[16] = gene SAT1, probeset 11743036_s_at
[17] = gene SDC4, probeset 11717639_x_at
[18] = gene SDC4, probeset 11749921_a_at
[19] = gene SH3BP1, probeset 11728063_x_at
[20] = gene SLC3A2, probeset 11733071_a_at
[21] = gene SLC3A2, probeset 11741149_x_at
[22] = gene SLC3A2, probeset 11746697_a_at
[23] = gene SLC3A2, probeset 11753434_a_at
[24] = gene SLC16A6, probeset 11735090_s_at
[25] = gene SLC16A6, probeset 11754629_s_at
[26] = gene SMAGP, probeset 11719864_a_at

## C=C(CC[C@@H](C(=O)O)[C@H]1[C@H](O)C[C@@]2(C)C3=C(CC[C@]12C)[C@@]1(C)CC[C@H](OC(C)=O)C(C)(C)[C@@H]1CC3)C(C)C [PA, Pachymic acid]
[1]
  Fold-Change (MiaPaca-2 * PA vs. MiaPaca-2 * control): 1.65
  Mean (MiaPaca-2 * PA): 9.69
Gene HNRNPM, probeset 11761516_x_at, MiaPaca-2
  Fold-Change (MiaPaca-2 * PA vs. MiaPaca-2 * control): 1.50
Gene HNRNPM, probeset 11761516_x_at, MiaPaca-2, PA-treated
  Mean (MiaPaca-2 * PA): 10.58
Gene HOOK1, probeset 11750347_a_at, MiaPaca-2
  Fold-Change (MiaPaca-2 * PA vs. MiaPaca-2 * control): 1.50
Gene HOOK1, probeset 11750347_a_at, MiaPaca-2, PA-treated
  Mean (MiaPaca-2 * PA): 3.97
[2]
  Fold-Change (MiaPaca-2 * PA vs. MiaPaca-2 * control): 1.60
  Mean (MiaPaca-2 * PA): 7.72
Gene IL12A, probeset 11756769_a_at, MiaPaca-2
  Fold-Change (MiaPaca-2 * PA vs. MiaPaca-2 * control): 1.50
Gene IL12A, probeset 11756769_a_at, MiaPaca-2, PA-treated
  Mean (MiaPaca-2 * PA): 5.04
[3]
  Fold-Change (MiaPaca-2 * PA vs. MiaPaca-2 * control): 1.59
  Mean (MiaPaca-2 * PA): 6.52
Gene KLHL29, probeset 11745365_at, MiaPaca-2
  Fold-Change (MiaPaca-2 * PA vs. MiaPaca-2 * control): 1.51
Gene KLHL29, probeset 11745365_at, MiaPaca-2, PA-treated
  Mean (MiaPaca-2 * PA): 5.04
Gene LIF, probeset 11726498_at
  Fold-Change (MiaPaca-2 * PA vs. MiaPaca-2 * control): 1.55
  Mean (MiaPaca-2 * PA): 7.20
[4]
  Fold-Change (MiaPaca-2 * PA vs. MiaPaca-2 * control): 1.55
  Mean (MiaPaca-2 * PA): 9.50
Gene LRP8, probeset 11741376_a_at, MiaPaca-2
  Fold-Change (MiaPaca-2 * PA vs. MiaPaca-2 * control): 1.53
Gene LRP8, probeset 11741376_a_at, MiaPaca-2, PA-treated
  Mean (MiaPaca-2 * PA): 7.95
[5]
  Fold-Change (MiaPaca-2 * PA vs. MiaPaca-2 * control): 1.54
  Mean (MiaPaca-2 * PA): 6.97
Gene MAFF, probeset 11726611_x_at, MiaPaca-2
  Fold-Change (MiaPaca-2 * PA vs. MiaPaca-2 * control): 1.50
Gene MAFF, probeset 11726611_x_at, MiaPaca-2, PA-treated
  Mean (MiaPaca-2 * PA): 6.99
[6]
  Fold-Change (MiaPaca-2 * PA vs. MiaPaca-2 * control): 1.55
  Mean (MiaPaca-2 * PA): 9.40
[7]
  Fold-Change (MiaPaca-2 * PA vs. MiaPaca-2 * control): 1.55
  Mean (MiaPaca-2 * PA): 6.32
[8]
  Fold-Change (MiaPaca-2 * PA vs. MiaPaca-2 * control): 1.61
  Mean (MiaPaca-2 * PA): 6.51
[9]
  Fold-Change (MiaPaca-2 * PA vs. MiaPaca-2 * control): 1.60
  Mean (MiaPaca-2 * PA): 8.79
Gene MMP1, probeset 11741897_a_at, MiaPaca-2
  Fold-Change (MiaPaca-2 * PA vs. MiaPaca-2 * control): 1.52
Gene MMP1, probeset 11741897_a_at, MiaPaca-2, PA-treated
  Mean (MiaPaca-2 * PA): 5.59
[10]
  Fold-Change (MiaPaca-2 * PA vs. MiaPaca-2 * control): 1.54
  Mean (MiaPaca-2 * PA): 5.19
Gene NFKBIA, probeset 11744000_a_at
  Fold-Change (MiaPaca-2 * PA vs. MiaPaca-2 * control): 1.65
[11]
  Fold-Change (MiaPaca-2 * PA vs. MiaPaca-2 * control): 1.67
  Mean (MiaPaca-2 * PA): 11.53
[12]
  Fold-Change (MiaPaca-2 * PA vs. MiaPaca-2 * control): 1.56
  Mean (MiaPaca-2 * PA): 11.80
Gene PABPC1L, probeset 11721609_a_at, MiaPaca-2
  Fold-Change (MiaPaca-2 * PA vs. MiaPaca-2 * control): 1.51
Gene PABPC1L, probeset 11721609_a_at, MiaPaca-2, PA-treated
  Mean (MiaPaca-2 * PA): 9.20
[13]
  Fold-Change (MiaPaca-2 * PA vs. MiaPaca-2 * control): 1.57
  Mean (MiaPaca-2 * PA): 8.15
Gene PHLDB2, probeset 11737041_a_at, MiaPaca-2
  Fold-Change (MiaPaca-2 * PA vs. MiaPaca-2 * control): 1.50
Gene PHLDB2, probeset 11737041_a_at, MiaPaca-2, PA-treated
  Mean (MiaPaca-2 * PA): 11.63
[14]
  Fold-Change (MiaPaca-2 * PA vs. MiaPaca-2 * control): 1.55
  Mean (MiaPaca-2 * PA): 5.78
Gene PNP, probeset 11718400_a_at, MiaPaca-2
  Fold-Change (MiaPaca-2 * PA vs. MiaPaca-2 * control): 1.50
Gene PNP, probeset 11718400_a_at, MiaPaca-2, PA-treated
  Mean (MiaPaca-2 * PA): 10.30
Gene RBM3, probeset 11760141_s_at, MiaPaca-2
  Fold-Change (MiaPaca-2 * PA vs. MiaPaca-2 * control): 1.52
Gene RBM3, probeset 11760141_s_at, MiaPaca-2, PA-treated
  Mean (MiaPaca-2 * PA): 5.58
Gene RCAN1, probeset 11763514_x_at, MiaPaca-2
  Fold-Change (MiaPaca-2 * PA vs. MiaPaca-2 * control): 1.51
Gene RCAN1, probeset 11763514_x_at, MiaPaca-2, PA-treated
  Mean (MiaPaca-2 * PA): 7.84
Gene RPL37A, probeset 11759821_at, MiaPaca-2
  Fold-Change (MiaPaca-2 * PA vs. MiaPaca-2 * control): 1.51
Gene RPL37A, probeset 11759821_at, MiaPaca-2, PA-treated
  Mean (MiaPaca-2 * PA): 7.62
[15]
  Fold-Change (MiaPaca-2 * PA vs. MiaPaca-2 * control): 1.59
  Mean (MiaPaca-2 * PA): 5.23
[16]
  Fold-Change (MiaPaca-2 * PA vs. MiaPaca-2 * control): 1.56
  Mean (MiaPaca-2 * PA): 10.67
[17]
  Fold-Change (MiaPaca-2 * PA vs. MiaPaca-2 * control): 1.61
  Mean (MiaPaca-2 * PA): 10.95
[18]
  Fold-Change (MiaPaca-2 * PA vs. MiaPaca-2 * control): 1.53
  Mean (MiaPaca-2 * PA): 8.87
[19]
  Fold-Change (MiaPaca-2 * PA vs. MiaPaca-2 * control): 1.54
  Mean (MiaPaca-2 * PA): 7.60
[20]
  Fold-Change (MiaPaca-2 * PA vs. MiaPaca-2 * control): 1.55
  Mean (MiaPaca-2 * PA): 8.64
[21]
  Fold-Change (MiaPaca-2 * PA vs. MiaPaca-2 * control): 1.56
  Mean (MiaPaca-2 * PA): 8.54
[22]
  Fold-Change (MiaPaca-2 * PA vs. MiaPaca-2 * control): 1.58
  Mean (MiaPaca-2 * PA): 8.64
[23]
  Fold-Change (MiaPaca-2 * PA vs. MiaPaca-2 * control): 1.53
  Mean (MiaPaca-2 * PA): 7.98
Gene SLC3A2, probeset 11754529_x_at, MiaPaca-2
  Fold-Change (MiaPaca-2 * PA vs. MiaPaca-2 * control): 1.52
Gene SLC3A2, probeset 11754529_x_at, MiaPaca-2, PA-treated
  Mean (MiaPaca-2 * PA): 9.50
[24]
  Fold-Change (MiaPaca-2 * PA vs. MiaPaca-2 * control): 1.58
  Mean (MiaPaca-2 * PA): 5.46
[25]
  Fold-Change (MiaPaca-2 * PA vs. MiaPaca-2 * control): 1.55
  Mean (MiaPaca-2 * PA): 6.21
[26]
  Fold-Change (MiaPaca-2 * PA vs. MiaPaca-2 * control): 1.55
  Mean (MiaPaca-2 * PA): 9.61
Gene SMURF2, probeset 11748382_a_at, MiaPaca-2
  Fold-Change (MiaPaca-2 * PA vs. MiaPaca-2 * control): 1.50
Gene SMURF2, probeset 11748382_a_at, MiaPaca-2, PA-treated
  Mean (MiaPaca-2 * PA): 8.51
Gene SNHG12, probeset 11753858_a_at, MiaPaca-2
  Fold-Change (MiaPaca-2 * PA vs. MiaPaca-2 * control): 1.50
Gene SNHG12, probeset 11753858_a_at, MiaPaca-2, PA-treated
  Mean (MiaPaca-2 * PA): 10.82
Gene SPRY4, probeset 11736669_s_at, MiaPaca-2
  Fold-Change (MiaPaca-2 * PA vs. MiaPaca-2 * control): 1.50
